Results as given in ChEMBL document CHEMBL5335793, “PITB: A high affinity transthyretin aggregation inhibitor with optimal pharmacokinetic properties” (Eur J Med Chem, 2023).

Legend:
[1] = target: T1, Transthyretin (Homo sapiens, UniProt P02766); assay: Stabilization of wild-type TTR (unknown origin) expressed in Escherichia coli BL21(DE3) assessed as reduction in urea-induced tetramer dissociation at 3.6 uM preincubated for 30 mins followed by urea addition measured for 100 hrs by fluorescence based assay relative to control; parameters: scale not given: the % may be the effect or the level left; settings: time 100.5 hrs
[2] = tested on: Transthyretin (Homo sapiens), P02766 [V50M]; assay: Stabilization of TTR V30M mutant (unknown origin) expressed in Escherichia coli BL21(DE3) assessed as reduction in urea-induced tetramer dissociation at 3.6 uM preincubated for 30 mins followed by urea addition measured for 100 hrs by fluorescence based assay relative to control; parameters: scale not given: the % may be the effect or the level left; settings: time 100.5 hrs
[3] = tested on: Transthyretin (Homo sapiens), P02766 [V142I]; assay: Stabilization of TTR V122I mutant (unknown origin) expressed in Escherichia coli BL21(DE3) assessed as reduction in urea-induced tetramer dissociation at 3.6 uM preincubated for 30 mins followed by urea addition measured for 100 hrs by fluorescence based assay relative to control; parameters: scale not given: the % may be the effect or the level left; settings: time 100.5 hrs
[4] = Half life in CD-1 mouse at 1 mg/kg, iv measured for 24 hrs by UPLC-MS/MS analysis; assay type: ADME, organism-based; settings: in vivo
[5] = AUC (0 to 24 hrs) in CD-1 mouse at 1 mg/kg, iv by UPLC-MS/MS analysis; assay type: ADME, organism-based; parameters: time 24 hrs, dose 1 mg/kg, route iv; settings: in vivo
[6] = Cmax in CD-1 mouse at 1 mg/kg, iv measured for 24 hrs by UPLC-MS/MS analysis; assay type: ADME, organism-based; parameters: dose 1 mg/kg, time 24 hrs, route iv; settings: in vivo
[7] = target: T1, Transthyretin; assay: Stabilization of wild-type TTR (unknown origin) expressed in Escherichia coli BL21(DE3) assessed as inhibition of TTR aggregation at 1:1 ratio of TTR:compound incubated for 30 mins followed by acidification measured for 72 hrs by turbidimetry relative to control; settings: time 72.5 hrs
[8] = target: T1, Transthyretin; assay: Stabilization of wild-type TTR (unknown origin) expressed in Escherichia coli BL21(DE3) assessed as inhibition of TTR aggregation at 20 uM incubated for 30 mins followed by acidification measured for 72 hrs by turbidimetry relative to control; settings: time 72.5 hrs
[9] = tested on: Transthyretin (Homo sapiens), P02766 [V50M]; assay: Stabilization of TTR V30M mutant (unknown origin) expressed in Escherichia coli BL21(DE3) assessed as inhibition of TTR aggregation at 20 uM incubated for 30 mins followed by acidification measured for 72 hrs by turbidimetry relative to control; settings: time 72.5 hrs
[10] = tested on: Transthyretin (Homo sapiens), P02766 [V142I]; assay: Stabilization of TTR V122I mutant (unknown origin) expressed in Escherichia coli BL21(DE3) assessed as inhibition of TTR aggregation at 20 uM incubated for 30 mins followed by acidification measured for 72 hrs by turbidimetry relative to control; settings: time 72.5 hrs
[11] = target: T1, Transthyretin; assay: Stabilization of wild-type TTR (unknown origin) expressed in Escherichia coli BL21(DE3) assessed as inhibition of TTR aggregation incubated for 30 mins followed by acidification measured for 72 hrs by turbidimetry relative to control; settings: time 72.5 hrs
[12] = target: T1, Transthyretin; assay: Binding affinity to wild-type TTR (unknown origin) expressed in Escherichia coli BL21(DE3) assessed as dissociation constant by ITC analysis
[13] = target: T1, Transthyretin; assay: Binding affinity to wild-type TTR (unknown origin) expressed in Escherichia coli BL21(DE3) assessed as change in gibbs free energy at 100 uM by ITC analysis
[14] = target: T1, Transthyretin; assay: Binding affinity to wild-type TTR (unknown origin) expressed in Escherichia coli BL21(DE3) assessed as change in enthalpy at 100 uM by ITC analysis
[15] = target: T1, Transthyretin; assay: Binding affinity to wild-type TTR (unknown origin) expressed in Escherichia coli BL21(DE3) assessed as change in entropy at 100 uM by ITC analysis
[16] = target: Transthyretin (Homo sapiens, UniProt P02766, V50M); assay: Binding affinity to TTR V30M mutant (unknown origin) expressed in Escherichia coli BL21(DE3) assessed as dissociation constant by ITC analysis
[17] = tested on: Transthyretin (Homo sapiens), P02766 [V50M]; assay: Binding affinity to TTR V30M mutant (unknown origin) expressed in Escherichia coli BL21(DE3) assessed as change in gibbs free energy at 100 uM by ITC analysis
[18] = tested on: Transthyretin (Homo sapiens), P02766 [V50M]; assay: Binding affinity to TTR V30M mutant (unknown origin) expressed in Escherichia coli BL21(DE3) assessed as change in enthalpy at 100 uM by ITC analysis
[19] = tested on: Transthyretin (Homo sapiens), P02766 [V50M]; assay: Binding affinity to TTR V30M mutant (unknown origin) expressed in Escherichia coli BL21(DE3) assessed as change in entropy at 100 uM by ITC analysis
[20] = target: Transthyretin (Homo sapiens, UniProt P02766, V142I); assay: Binding affinity to TTR V122I mutant (unknown origin) expressed in Escherichia coli BL21(DE3) assessed as dissociation constant by ITC analysis
[21] = tested on: Transthyretin (Homo sapiens), P02766 [V142I]; assay: Binding affinity to TTR V122I mutant (unknown origin) expressed in Escherichia coli BL21(DE3) assessed as change in gibbs free energy at 100 uM by ITC analysis
[22] = tested on: Transthyretin (Homo sapiens), P02766 [V142I]; assay: Binding affinity to TTR V122I mutant (unknown origin) expressed in Escherichia coli BL21(DE3) assessed as change in enthalpy at 100 uM by ITC analysis
[23] = tested on: Transthyretin (Homo sapiens), P02766 [V142I]; assay: Binding affinity to TTR V122I mutant (unknown origin) expressed in Escherichia coli BL21(DE3) assessed as change in entropy at 100 uM by ITC analysis
[24] = target: T1, Transthyretin; assay: Potency index, ratio of Kd for Tolcapone to test compound for wild-type TTR (unknown origin) expressed in Escherichia coli BL21(DE3) assessed as dissociation constant by ITC analysis
[25] = tested on: Transthyretin (Homo sapiens), P02766 [V142I]; assay: Potency index, ratio of Kd for Tolcapone to test compound for TTR V122I mutant (unknown origin) expressed in Escherichia coli BL21(DE3) assessed as dissociation constant by ITC analysis
[26] = tested on: Transthyretin (Homo sapiens), P02766 [V50M]; assay: Potency index, ratio of Kd for Tolcapone to test compound for TTR V30M mutant (unknown origin) expressed in Escherichia coli BL21(DE3) assessed as dissociation constant by ITC analysis
[27] = target: T1, Transthyretin; assay: Displacement of [125I]-T4 from TTR in human plasma incubated for 1 hr by densitometry relative to control; assay type: cell-free
[28] = tested on: Transthyretin (Homo sapiens), P02766 [V50M]; assay: Displacement of [125I]-T4 from TTR V30M mutant in human plasma incubated for 1 hr by densitometry relative to control; assay type: cell-free
[29] = tested on: Transthyretin (Homo sapiens), P02766 [V50M]; assay: Stabilization of TTR V30M mutant in human plasma assessed as degree of tetramer stability at 19.1 uM incubated overnight followed by urea addition measured after 5 hrs by isoelectric focusing based densitometry relative to control; assay type: cell-free
[30] = tested on: HeLa; assay: Cytotoxicity against human HeLa cells assessed as cell viability upto 100 uM incubated for 72 hrs by PrestoBlue assay; assay type: toxicity, cell-based
[31] = tested on: HepG2; assay: Cytotoxicity against human HepG2 cells assessed as cell viability upto 100 uM incubated for 72 hrs by PrestoBlue assay; assay type: toxicity, cell-based; settings: hepg2, 72 h
[32] = tested on: MRC5; assay: Cytotoxicity against human MRC5 cells assessed as cell viability upto 100 uM incubated for 72 hrs by PrestoBlue assay; assay type: toxicity, cell-based; settings: mrc5, 72 h
[33] = Tmax in CD-1 mouse at 10 mg/kg, po measured for 24 hrs by UPLC-MS/MS analysis; assay type: ADME, organism-based; settings: in vivo
[34] = Cmax in CD-1 mouse at 10 mg/kg, po measured for 24 hrs by UPLC-MS/MS analysis; assay type: ADME, organism-based; parameters: dose 10 mg/kg, time 24 hrs, route po; settings: in vivo
[35] = AUC (0 to 24 hrs) in CD-1 mouse at 10 mg/kg, po measured for 24 hrs by UPLC-MS/MS analysis; assay type: ADME, organism-based; parameters: time 24 hrs, dose 10 mg/kg, route po; settings: in vivo
[36] = Half life in CD-1 mouse at 10 mg/kg, po measured for 24 hrs by UPLC-MS/MS analysis; assay type: ADME, organism-based; settings: in vivo
[37] = Elimination rate constant in CD-1 mouse at 1 mg/kg, iv measured for 24 hrs by UPLC-MS/MS analysis; assay type: ADME, organism-based; settings: in vivo
[38] = Volume of distribution in CD-1 mouse at 1 mg/kg, iv measured for 24 hrs by UPLC-MS/MS analysis; assay type: ADME, organism-based; settings: in vivo
[39] = Clearance in CD-1 mouse at 1 mg/kg, iv measured for 24 hrs by UPLC-MS/MS analysis; assay type: ADME, organism-based; settings: in vivo
[40] = Elimination rate constant in CD-1 mouse at 10 mg/kg, po measured for 24 hrs by UPLC-MS/MS analysis; assay type: ADME, organism-based; settings: in vivo
[41] = Volume of distribution in CD-1 mouse at 10 mg/kg, po measured for 24 hrs by UPLC-MS/MS analysis; assay type: ADME, organism-based; settings: in vivo
[42] = Clearance in CD-1 mouse at 10 mg/kg, po measured for 24 hrs by UPLC-MS/MS analysis; assay type: ADME, organism-based; settings: in vivo
[43] = Oral bioavailability in CD-1 mouse at 10 mg/kg measured for 24 hrs by UPLC-MS/MS analysis; assay type: ADME, organism-based; settings: in vivo
[44] = Drug metabolism in CD-1 mouse assessed as 3-O-methylM23 formation by measuring Cmax at 1 mg/kg, iv measured for 24 hrs by UPLC-MS/MS analysis; assay type: ADME, organism-based; parameters: dose 1 mg/kg, time 24 hrs, route iv; settings: in vivo
[45] = Drug metabolism in CD-1 mouse assessed as 3-O-methylM23 formation by measuring AUC (0 to 24 hrs) at 1 mg/kg, iv by UPLC-MS/MS analysis; assay type: ADME, organism-based; parameters: time 24 hrs, dose 1 mg/kg, route iv; settings: in vivo
[46] = Drug metabolism in CD-1 mouse assessed as 3-O-methylM23 formation by measuring half life at 1 mg/kg, iv measured for 24 hrs by UPLC-MS/MS analysis; assay type: ADME, organism-based; settings: in vivo
[47] = Drug metabolism in CD-1 mouse assessed as 3-O-methylM23 formation by measuring Tmax at 10 mg/kg, po measured for 24 hrs by UPLC-MS/MS analysis; assay type: ADME, organism-based; settings: in vivo
[48] = Drug metabolism in CD-1 mouse assessed as 3-O-methylM23 formation by measuring Cmax at 10 mg/kg, po measured for 24 hrs by UPLC-MS/MS analysis; assay type: ADME, organism-based; parameters: time 24 hrs, dose 10 mg/kg, route po; settings: in vivo
[49] = Drug metabolism in CD-1 mouse assessed as 3-O-methylM23 formation by measuring AUC (0 to 24 hrs) at 10 mg/kg, po by UPLC-MS/MS analysis; assay type: ADME, organism-based; parameters: time 24 hrs, dose 10 mg/kg, route po; settings: in vivo
[50] = Drug metabolism in CD-1 mouse assessed as 3-O-methylM23 formation by measuring half life at 10 mg/kg, po measured for 24 hrs by UPLC-MS/MS analysis; assay type: ADME, organism-based; settings: in vivo

COc1cc(C(=O)c2cc(O)cc(F)c2)cc([N+](=O)[O-])c1O
Activity [1]: 94.1% | Activity [2]: 79.2% | Activity [3]: 92.5% | half-life [4]: 3.5 h | AUC(0-t) at 24 h [5]: 3160 ng·h/mL | Cmax [6]: 4040 ng/mL | inhibition [7]: > 60% | inhibition [8]: 89.2% | inhibition [9]: 92% | inhibition [10]: < 90% | inhibition [11]: > 87.5% | Kd [12]: 16 nM | deltaG [13]: -10.6 kcal/mol | deltaH [14]: -13.4 kcal/mol | -TdeltaS [15]: 2.8 kcal/mol | Kd [16]: 36 nM | deltaG [17]: -10.2 kcal/mol | deltaH [18]: -11 kcal/mol | -TdeltaS [19]: 0.8 kcal/mol | Kd [20]: 14 nM | deltaG [21]: -10.7 kcal/mol | deltaH [22]: -16.1 kcal/mol | -TdeltaS [23]: 5.4 kcal/mol | Ratio [24]: > 3 | Ratio [25]: > 3 | Ratio [26]: > 12 | Activity [27]: 97.3% | Activity [28]: 94.5% | Activity [29]: 17.4% | Activity [30]: Non-Toxic | Activity [31]: Non-Toxic | Activity [32]: Non-Toxic | Tmax [33]: 0.5 h | Cmax [34]: 4180 ng/mL | AUC(0-t) at 24 h [35]: 26900 ng·h/mL | half-life [36]: 10.1 h | k el at 24 h [37]: 5.58e-05 s⁻¹ | Vd [38]: 1.57 L/kg | clearance [39]: 5.25 mL/min/kg | k el at 24 h [40]: 1.92e-05 s⁻¹ | Vd [41]: 4.482 L/kg | CL/F [42]: 5.13 mL/min/kg | bioavailability [43]: 85.1%

O=C(c1cc(O)cc(F)c1)c1cc(O)c(O)c([N+](=O)[O-])c1
Cmax [44]: 555.3 ng/mL | half-life [4]: 1.5 h | AUC(0-t) at 24 h [5]: 761 ng·h/mL | Cmax [6]: 1360 ng/mL | AUC [45]: 462.1 ng·h/mL | t1/2 [46]: 2.7 h | Tmax [33]: < 0.25 h | Cmax [34]: 744 ng/mL | AUC(0-t) at 24 h [35]: 866 ng·h/mL | half-life [36]: 0.9 h | Tmax [47]: < 0.25 h | Cmax [48]: 96.7 ng/mL | AUC [49]: 209.1 ng·h/mL | t1/2 [50]: 2.8 h
